Assay results taken from patent US7786141B2 (Vertex Pharmaceuticals Incorporated, priority 2004, dated 2010).
Like-named read-outs stand apart in the source and are kept apart here.

How the values were obtained:
M1 muscarinic receptor = biological target: T1, M1 muscarinic receptor (Homo sapiens, UniProt P11229); assay: Functional mobilization of intracellular calcium (FLIPR) in M1-CHO cells; assay type: cell-based
T1 construct: expressed in transfected cells; host or cells: CHO (M1-CHO)
T1 sequence (P11229 1-460): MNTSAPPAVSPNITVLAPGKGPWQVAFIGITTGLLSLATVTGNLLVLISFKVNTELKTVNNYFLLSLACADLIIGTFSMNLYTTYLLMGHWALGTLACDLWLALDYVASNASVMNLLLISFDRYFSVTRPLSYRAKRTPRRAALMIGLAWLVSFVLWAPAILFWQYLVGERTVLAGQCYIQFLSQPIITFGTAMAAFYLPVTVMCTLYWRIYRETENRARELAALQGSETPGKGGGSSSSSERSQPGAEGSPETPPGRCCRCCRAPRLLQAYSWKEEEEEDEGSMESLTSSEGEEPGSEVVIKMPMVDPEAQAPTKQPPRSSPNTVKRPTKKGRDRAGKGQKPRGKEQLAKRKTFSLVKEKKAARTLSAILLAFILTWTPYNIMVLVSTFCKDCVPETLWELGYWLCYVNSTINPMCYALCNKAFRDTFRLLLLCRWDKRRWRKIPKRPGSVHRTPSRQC
How it was run: (§1)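 Two modes: direct compound addition for agonism, or 15 min compound pre-incubation (or co-application) before carbachol at EC80 for inhibition. Calcium signal from Fluo-3 AM or Calcium 3 dye in CHO cells, 1 mM probenecid, pH 7.4, read 60 sec at 488/540 nm; DMSO 0.5% final.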

M4 muscarinic receptor = biological target: T2, M4 muscarinic receptor (Homo sapiens, UniProt P08173); assay: Functional mobilization of intracellular calcium (FLIPR) in M4-CHO cells; assay type: cell-based
T2 construct: expressed in transfected cells; host or cells: CHO (M4-CHO)
T2 sequence (P08173 1-479): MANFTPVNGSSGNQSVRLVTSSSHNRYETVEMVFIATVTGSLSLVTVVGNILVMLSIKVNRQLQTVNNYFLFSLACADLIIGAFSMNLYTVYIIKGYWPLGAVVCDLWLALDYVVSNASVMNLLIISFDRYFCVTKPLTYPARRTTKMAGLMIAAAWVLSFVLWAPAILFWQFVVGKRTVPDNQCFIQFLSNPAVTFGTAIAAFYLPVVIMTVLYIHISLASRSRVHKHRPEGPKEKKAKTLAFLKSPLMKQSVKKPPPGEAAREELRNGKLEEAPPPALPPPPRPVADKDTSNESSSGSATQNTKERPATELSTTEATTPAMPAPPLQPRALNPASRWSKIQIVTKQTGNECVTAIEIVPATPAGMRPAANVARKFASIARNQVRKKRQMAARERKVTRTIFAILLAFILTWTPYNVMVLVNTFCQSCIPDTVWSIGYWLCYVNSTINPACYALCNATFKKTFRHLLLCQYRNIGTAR
How it was run: as §1

[1] = Table 4, 100% efficacy is the maximum response obtained with the Carbachol control
[2] = Table 4, modulating M1 receptor
[3] = Table 4, modulating M4 receptor
[4] = Table 4, M1 receptor, calcium mobilization (FLIPR)
[5] = Table 4, M4 receptor, calcium mobilization (FLIPR)
[6] = M1 receptor, calcium mobilization
[7] = M1 receptor, calcium mobilization, read-out: M1 Efficacy
[8] = M4 receptor, calcium mobilization
[9] = M4 receptor, calcium mobilization, read-out: M4 Efficacy
[10] = M1-CHO cells, calcium mobilization (FLIPR)
[11] = M4-CHO cells, calcium mobilization (FLIPR)

Row | Structure (SMILES) | Emax (M1 muscarinic receptor; [1]) | M1 Activity (M1 muscarinic receptor; [2]) | Emax (M4 muscarinic receptor; [1]) | M4 Activity (M4 muscarinic receptor; [3]) | M1 Activity (M1 muscarinic receptor; [6]) | Emax (M1 muscarinic receptor; [7]) | M4 Activity (M4 muscarinic receptor; [8]) | Emax (M4 muscarinic receptor; [9]) | also measured
1 | CS(=O)(=O)N[C@H]1CCC2(CCN([C@H]3CC4CC[C@H](C4)C3)CC2)c2ccccc21 [compound 668] | 25 to 100% | xxx (activity was measured to be less than 2.0 μM) | 25 to 100% | xxx (activity was measured to be less than 2.0 μM) |  |  |  |  | 
2 | CCC#CCOC(=O)N1CC[C@H](CN2CCC3(CC2)CN(C(=O)N(C)C)c2ccc(F)cc23)C1 [compound 675] | 25 to 100% | xxx (activity was measured to be less than 2.0 μM) | 25 to 100% | xxx (activity was measured to be less than 2.0 μM) |  |  |  |  | 
3 | CCCOC(=O)N1CC[C@H](CN2CCC3(CC2)CN(C(C)=O)c2ccccc23)C1 [compound 518] | < 25% | x (activity was measured to be greater than 5.0 μM) | < 25% | x (activity was measured to be greater than 5.0 μM) |  |  |  |  | 
4 | CN(C)C(=O)N1CC2(CCN(C3CCN(C(=O)c4cccs4)CC3)CC2)c2cc(F)ccc21 [compound 649] | 25 to 100% | xxx (activity was measured to be less than 2.0 μM) | < 25% | xxx (activity was measured to be less than 2.0 μM) |  |  |  |  | 
5 | CC(=O)N[C@H]1CCC2(CCN(C3CCN(C(=O)OC(C)(C)C)CC3)CC2)c2ccccc21 [compound 912] | 25 to 100% |  | < 25% |  |  |  |  |  | M1 Activity (M1 muscarinic receptor; [4]): xxx (activity was measured to be less than 2.0 μM); M4 Activity (M4 muscarinic receptor; [5]): x (activity was measured to be greater than 5.0 μM)
6 | CCOC(=O)N1CCC(N2CCC3(CC[C@H](NC(=O)N(C)C)c4ccccc43)CC2)CC1 [compound 961] | 25 to 100% |  | 25 to 100% |  |  |  |  |  | M1 Activity (M1 muscarinic receptor; [4]): xxx (activity was measured to be less than 2.0 μM); M4 Activity (M4 muscarinic receptor; [5]): xxx (activity was measured to be less than 2.0 μM)
7 | O=C(O[C@@H]1CCOC1)N1C2CCC1CC(N1CCC3(CCc4ccccc43)CC1)C2 (stereo partly drawn) [compound 43] |  |  |  |  | xxx (activity was measured to be less than 0.1 μM) | > 85% | x (activity was measured to be greater than 1.0 μM) | > 85% | 
8 | C/C=C/C(=O)N1CC2(CCN(C3CCN(C(=O)OCC)CC3)CC2)c2cc(F)ccc21 [compound 508] | 25 to 100% | xxx (activity was measured to be less than 2.0 μM) | 25 to 100% | xxx (activity was measured to be less than 2.0 μM) |  |  |  |  | 
9 | CC(=O)NC1CC2(CCN(C[C@@H]3C[C@H]4C=C[C@H]3C4)CC2)c2ccccc21 (stereo partly drawn) [compound 421] |  |  |  |  |  |  |  |  | EC50 (M1 muscarinic receptor; [10]): > 1 µM; M1 Efficacy (M1 muscarinic receptor; [10]): x (efficacy was calculated to be less than 65%); EC50 (M4 muscarinic receptor; [11]): > 1 µM; M4 Efficacy (M4 muscarinic receptor; [11]): x (efficacy was calculated to be less than 65%)
10 | C#CCCOC(=O)N1CCC(N2CCC3(CC2)CN(C(C)=O)c2ccc(F)cc23)CC1 [compound 62] |  |  |  |  | xxx (activity was measured to be less than 0.1 μM) | < 65% | xx (activity was measured to be between 0.1 μM and 1.0 μM) | 65 to 85% | 
11 | COCCN1CC2(CCN(C3CC4CCC(C4)C3)CC2)c2cc(F)ccc21 (stereo not drawn) [compound 884] | 25 to 100% |  | 25 to 100% |  |  |  |  |  | M1 Activity (M1 muscarinic receptor; [4]): xxx (activity was measured to be less than 2.0 μM); M4 Activity (M4 muscarinic receptor; [5]): xxx (activity was measured to be less than 2.0 μM)
12 | CCCOC(=O)N1C2CCC1CC(N1CCC3(CC1)CN(C(=O)O[C@@H]1CCOC1)c1ccc(F)cc13)C2 (stereo partly drawn) [compound 297] |  |  |  |  | x (activity was measured to be greater than 1.0 μM) |  | x (activity was measured to be greater than 1.0 μM) |  | M1 Efficacy (M1 muscarinic receptor; [6]): xx (efficacy was calculated to be between 85% and 65%); M4 Efficacy (M4 muscarinic receptor; [8]): xx (efficacy was calculated to be between 85% and 65%)
13 | CN(C)C(=O)N1CC2(CCN(C3CCN(C(=O)COc4ccccc4)CC3)CC2)c2cc(F)ccc21 [compound 588] | < 25% | x (activity was measured to be greater than 5.0 μM) | < 25% | x (activity was measured to be greater than 5.0 μM) |  |  |  |  | 
14 | CC(=O)N[C@H]1CC2(CCN(C3CCC(C)CC3)CC2)c2ccccc21 (stereo partly drawn) [compound 280] |  |  |  |  | x (activity was measured to be greater than 1.0 μM) | 65 to 85% | x (activity was measured to be greater than 1.0 μM) | 65 to 85% | 
15 | CCOC(=O)N1CCC(N2CCC3(CC2)CN(C(C)=O)c2c(F)ccc(F)c23)CC1 [compound 431] | 25 to 100% | xx (activity was measured to be between 2.0 μM and 5.0 μM) | 25 to 100% | xx (activity was measured to be between 2.0 μM and 5.0 μM) |  |  |  |  | 
16 | Cc1ccc2c(c1)C1(CCN(C3CC4CCC3C4)CC1)CN2C(=O)C1CC1 (stereo not drawn) [compound 51] |  |  |  |  | xxx (activity was measured to be less than 0.1 μM) | 65 to 85% | xx (activity was measured to be between 0.1 μM and 1.0 μM) | 65 to 85% | 
17 | CCOC(=O)N1C2CCC1CC(N1CCC3(CC1)CN(C(=O)c1cc(C)oc1C)c1ccc(F)cc13)C2 (stereo not drawn) [compound 73] |  |  |  |  | xxx (activity was measured to be less than 0.1 μM) | 65 to 85% | xx (activity was measured to be between 0.1 μM and 1.0 μM) | 65 to 85% | 
18 | Clc1ccc2c(c1)C1(CCN(C3CCOCC3)CC1)CN2 [compound 37] |  |  |  |  | xxx (activity was measured to be less than 0.1 μM) | 65 to 85% | xx (activity was measured to be between 0.1 μM and 1.0 μM) | > 85% | 
19 | CCOC(=O)N1CCC(N2CCC3(CC2)CN(C(=O)c2cccnc2)c2ccc(F)cc23)CC1 [compound 144] |  |  |  |  | xxx (activity was measured to be less than 0.1 μM) | > 85% | xxx (activity was measured to be less than 0.1 μM) | > 85% | 
20 | Cc1noc(C)c1C(=O)N1CCC(N2CCC3(CC2)CN(C(=O)N(C)C)c2ccc(F)cc23)CC1 [compound 572] | 25 to 100% | xx (activity was measured to be between 2.0 μM and 5.0 μM) | < 25% | x (activity was measured to be greater than 5.0 μM) |  |  |  |  | 
21 | O=C(OC1CCCC1)N1C2CCC1CC(N1CCC3(CCc4ccccc43)CC1)C2 (stereo not drawn) [compound 258] |  |  |  |  | x (activity was measured to be greater than 1.0 μM) | 65 to 85% | x (activity was measured to be greater than 1.0 μM) | < 65% | 
22 | CC(=O)N[C@H]1CC2(CCN([C@H]3C[C@@H]4CC[C@@H]3C4)CC2)c2ccccc21 [compound 274] |  |  |  |  | xxx (activity was measured to be less than 0.1 μM) | 65 to 85% | x (activity was measured to be greater than 1.0 μM) | > 85% | 
23 | CCOC(=O)N1CCC(N2CCC3(CC2)CN(C(=O)C2CCCC2)c2ccc(F)cc23)CC1 [compound 17] |  |  |  |  | xx (activity was measured to be between 0.1 μM and 1.0 μM) | < 65% | xx (activity was measured to be between 0.1 μM and 1.0 μM) | 65 to 85% | 
24 | CC(=O)N1CC2(CCN(C3CC4CCC3C4)CC2)c2cc(C)ccc21 (stereo not drawn) [compound 138] |  |  |  |  | xxx (activity was measured to be less than 0.1 μM) | 65 to 85% | x (activity was measured to be greater than 1.0 μM) | 65 to 85% | 
25 | CCOC(=O)N1CCC(N2CCC3(CC2)CN(c2ccc(F)cc2)c2ccc(F)cc23)CC1 [compound 808] | 25 to 100% |  | 25 to 100% |  |  |  |  |  | M1 Activity (M1 muscarinic receptor; [4]): xxx (activity was measured to be less than 2.0 μM); M4 Activity (M4 muscarinic receptor; [5]): xxx (activity was measured to be less than 2.0 μM)
26 | CC(=O)N[C@@H]1CC2(CCN(C3CCOCC3)CC2)c2ccccc21 [compound 437] | < 25% | x (activity was measured to be greater than 5.0 μM) | < 25% | x (activity was measured to be greater than 5.0 μM) |  |  |  |  | 
27 | CCOC(=O)N1C2CCC1CC(N1CCC3(CC1)CN(C(=O)C1CCC1)c1ccc(F)cc13)C2 (stereo not drawn) [compound 179] |  |  |  |  | xx (activity was measured to be between 0.1 μM and 1.0 μM) | > 85% | x (activity was measured to be greater than 1.0 μM) | 65 to 85% | 
